{"source": "paper PMC6278366", "about": "“Synthesis and Evaluation of Anticancer Activities of Novel C-28 Guanidine-Functionalized Triterpene Acid Derivatives” (Molecules, 2018)", "key": {"Jurkat cells": {"tested_on": "Jurkat cells", "assay": "Cell cycle analysis (propidium iodide staining, flow cytometry)", "format": "cell-based, human", "conditions": "48 h, at IC50 concentration (59 μM Dihydro BA; 4 μM 15, 15c, 18c; 8 μM 20c); for cells in G2/M phase: control 14.5%", "description": "Cell cycle was analyzed using the method of propidium iodide staining. Briefly, cells were plated in 24-well round bottom plates at density 10 × 10^5 cells per well, centrifuged at 450× g for 5 min, and fixed with ice-cold 70% ethanol for 24 h at 0 °C. Cells were then washed with PBS and incubated with 250 μL of Guava Cell Cycle Reagent (Millipore, Burlington, MA, USA) for 30 min at room temperature in the dark. Samples were analyzed on NovoCyte^TM 2000 FlowCytometry System (ACEA, San Diego, CA, USA).\nFigure 3 Cell cycle analysis in Jurkat cells. […] The cells were trypsinized, harvested and washed three times with ice-PBS for PI-stained DNA content detected by flow cytometry. The experiments were performed three times, and the results of the representative experiments are shown. The first cytogram represents an untreated cell sample (A); after incubation with dihydrobetulinic acid for 48 h (B); after incubation with compound 15 for 24 h (C) and for 48 h (D); after incubation with compound 15c for 24 h (E) and for 48 h (F); after incubation with compound 18c for 24 h (G) and for 48 h (H); after incubation with compound 20c for 24 h (I) and for 48 h (J). […]"}, "[1]": {"tested_on": "HeLa (cervical cancer) cells", "assay": "Cytotoxicity assay (7-AAD viability, flow cytometry), HeLa", "format": "cell-based, human", "conditions": "Homo sapiens, HeLa, mean ± SE, at least three experiments in duplicate; viable cells", "how_it_was_run": "(§1)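 Adherent HeLa, HEK293 and normal human fibroblasts (5 × 10⁴/well, DMEM with 10% FBS, 37 °C, 5% CO2) were treated with compounds at 1, 5, 10, 15, 30 and 60 μM. Viability was read as 7-AAD exclusion by flow cytometry after 15 min staining.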"}, "[2]": {"tested_on": "U937 (histiocytic lymphoma) cells", "assay": "Cytotoxicity assay (7-AAD viability, flow cytometry), U937", "format": "cell-based, human", "conditions": "Homo sapiens, U-937, mean ± SE, at least three experiments in duplicate; viable cells; read-out: IC50 U937", "how_it_was_run": "(§2)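 Suspension lines in RPMI 1640 with 10% FBS at 37 °C, 5% CO2, treated with compounds at 1, 5, 10, 15, 30 and 60 μM. Live/dead status by 7-AAD staining (15 min, room temperature, dark) read on flow cytometer, 488 nm excitation, 675/30 nm emission.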"}, "[3]": {"tested_on": "Jurkat (T-lymphoblastic leukemia) cells", "assay": "cells", "format": "cell-based", "conditions": "Homo sapiens, Jurkat, mean ± SE, at least three experiments in duplicate; viable cells; read-out: IC50 Jurkat", "how_it_was_run": "as §2"}, "[4]": {"tested_on": "HEK293 (embryonic kidney) cells", "assay": "Cytotoxicity assay (7-AAD viability, flow cytometry), HEK293", "format": "cell-based, human", "conditions": "Homo sapiens, HEK293, mean ± SE, at least three experiments in duplicate; viable cells", "how_it_was_run": "as §1"}, "[5]": {"tested_on": "K562 (chronic myeloid leukemia) cells", "assay": "Cytotoxicity assay (7-AAD viability, flow cytometry), K562", "format": "cell-based, human", "conditions": "Homo sapiens, K562, mean ± SE, at least three experiments in duplicate; viable cells; read-out: IC50 K562", "how_it_was_run": "as §2"}}, "note": "Structures can show the parent of a compound that is named as a salt."}
{"compound": "CC(=O)O[C@H]1CC[C@@]2(C)C(CC[C@]3(C)C2CCC2C4C(C(C)C)CC[C@]4(C(=O)OCC(N)(CO)CO)CC[C@]23C)C1(C)C", "note": "(stereo partly drawn) [Compound 15, 3β-[2-Amino-3-hydroxy-2-(hydroxymethyl)propyl]-3-O-acetyl-lupane-28-oate]", "values": [{"measurement": "cells in G2/M phase", "setting": "Jurkat cells", "result": 7.0, "unit": "%"}, {"measurement": "cells in S phase", "setting": "Jurkat cells; control 38.3%", "result": 72.7, "unit": "%"}, {"measurement": "IC50", "setting": "[1]", "result": "19 ± 0.49", "unit": "µM"}, {"measurement": "IC50", "setting": "[2]", "result": "6.6 ± 0.23", "unit": "µM"}, {"measurement": "IC50", "setting": "[3]", "result": "3.3 ± 0.11", "unit": "µM"}, {"measurement": "IC50", "setting": "[4]", "result": "17 ± 0.25", "unit": "µM"}, {"measurement": "IC50", "setting": "[5]", "result": "2.1 ± 0.13", "unit": "µM"}]}
{"compound": "CC(=O)O[C@H]1CC[C@@]2(C)C(CC[C@]3(C)C2CCC2C4C(C(C)C)CC[C@]4(C(=O)OCC(CO)(CO)NC(=N)N)CC[C@]23C)C1(C)C", "note": "(stereo partly drawn) [Compound 15c, 3β-[2-Guanidine-3-hydroxy-2-(hydroxymethyl)propyl]-3-O-acetyl-lupane-28-oate hydrochloride]", "values": [{"measurement": "cells in G2/M phase", "setting": "Jurkat cells", "result": 1.5, "unit": "%"}, {"measurement": "IC50", "setting": "[1]", "result": "14 ± 0.31", "unit": "µM"}, {"measurement": "IC50", "setting": "[2]", "result": "15 ± 0.23", "unit": "µM"}, {"measurement": "IC50", "setting": "[3]", "result": "3.1 ± 0.41", "unit": "µM"}, {"measurement": "IC50", "setting": "[4]", "result": "16 ± 0.27", "unit": "µM"}, {"measurement": "IC50", "setting": "[5]", "result": "2.3 ± 0.34", "unit": "µM"}]}
